From paper PMC7921117, “Structural characterization of the microbial enzyme urocanate reductase mediating imidazole propionate production” (Nature Communications, 2021)

Assays:
UrdA′ (two-domain UrdA) [1] = target: T1, UrdA′ (two-domain UrdA) (Shewanella oneidensis, UniProt Q8CVD0); assay: X-ray structure ([…] Å); activity inhibition; details: ADP in the FAD-binding site; no urocanate bound, glycerol in substrate site
T1 construct: clamp and FAD domains, residues 130-582, C-terminal 6xHis kept, N-terminal FMN domain absent; E. coli TUNER(DE3) (mutants BL21(DE3)); mostly monomer
T1 sequence (Q8CVD0 130-582): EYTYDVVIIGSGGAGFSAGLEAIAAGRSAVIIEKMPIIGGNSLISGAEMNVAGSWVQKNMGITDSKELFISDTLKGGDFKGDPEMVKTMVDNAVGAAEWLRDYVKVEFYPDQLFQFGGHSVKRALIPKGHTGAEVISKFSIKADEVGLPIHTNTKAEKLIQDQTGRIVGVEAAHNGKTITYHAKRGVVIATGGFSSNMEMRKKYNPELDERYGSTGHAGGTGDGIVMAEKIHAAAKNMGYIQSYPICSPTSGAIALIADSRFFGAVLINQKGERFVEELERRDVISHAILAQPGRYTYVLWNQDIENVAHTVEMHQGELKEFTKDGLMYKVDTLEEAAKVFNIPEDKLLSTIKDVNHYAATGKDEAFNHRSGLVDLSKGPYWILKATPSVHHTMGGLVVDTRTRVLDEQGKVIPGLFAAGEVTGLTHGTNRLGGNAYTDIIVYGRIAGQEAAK

UrdA′ (two-domain UrdA) [2] = target: T1, UrdA′ (two-domain UrdA); assay: X-ray structure ([…] Å); format: binding; details: no substrate bound; sulfate in active site; FAD also in 6T87 and 6T88

Compound	X-ray structure (1.1 Å); activity inhibition (UrdA′ (two-domain UrdA) [1])	X-ray structure (2.56 Å) (UrdA′ (two-domain UrdA) [2])
Nc1ncnc2c1ncn2[C@@H]1O[C@H](COP(=O)(O)OP(=O)(O)O)[C@@H](O)[C@H]1O [ADP]	supported by the ADP-induced inhibition of UrdA′ activity	–
Cc1cc2nc3c(=O)[nH]c(=O)nc-3n(C[C@H](O)[C@H](O)[C@H](O)COP(=O)(O)OP(=O)(O)OC[C@H]3O[C@@H](n4cnc5c(N)ncnc54)[C@H](O)[C@@H]3O)c2cc1C [FAD]	–	6T86 for apo-FAD, 6T87 for uro-FAD, and 6T88 for imp-FAD
